Assay results reported in patent USRE37950E1, “Biogradable in-situ forming implants and methods of producing the same” (priority 1990, dated 2002).

Key:
[1] = Release of drug from polymer/NMP formulation injected into dialysis tube, placed in pH 7 Sorenson's buffer receiving fluid at 37° C., UV at 237 nm; format: physicochemical; details: for cumulative fraction of drug released: Example 1: 2% by weight SaCl dispersion in DL-PLA oligomer/NMP 68:32
[2] = Concentration of SaCl in crevicular fluid from periodontal pocket of a greyhound dog (Periostrips, Periotron, liquid chromatograph); details: other: inserted into the periodontal pocket

C[n+]1cc2c3c(ccc2c2ccc4cc5c(cc4c21)OCO5)OCO3 [SaCl, Sanguinarine chloride]
cumulative fraction of drug released ([1]; after 2 days): ~72%
cumulative fraction of drug released ([1]; after 5 days): ~85%
cumulative fraction of drug released ([1]; after 9 days): ~90%
cumulative fraction of drug released ([1]; after 14 days): ~97%
cumulative fraction of drug released ([1]; first day): Approximately 60%
drug released ([1]; Example 3: 1.5% by weight SaCl dispersion in 40% by weight poly(DL-lactide) (MW 2,000) in NMP, after 2 days): ~40%
drug released ([1]; Example 3: 1.5% by weight SaCl dispersion in 40% by weight poly(DL-lactide) (MW 2,000) in NMP, after 5 days): ~45%
drug released ([1]; Example 3: 1.5% by weight SaCl dispersion in 40% by weight poly(DL-lactide) (MW 2,000) in NMP, after 15 days): ~50%
drug released ([1]; Example 3: 1.5% by weight SaCl dispersion in 40% by weight poly(DL-lactide) (MW 2,000) in NMP, after the first day): approximately 32%
drug released ([1]; Example 6: 2% by weight SaCl dispersion in 70% by weight 50:50 DL-PLG (MW 1500) in NMP, after 2 days): approximately 7%
drug released ([1]; Example 6: 2% by weight SaCl dispersion in 70% by weight 50:50 DL-PLG (MW 1500) in NMP, after 5 days): ~10%
drug released ([1]; Example 6: 2% by weight SaCl dispersion in 70% by weight 50:50 DL-PLG (MW 1500) in NMP, after 7 days): ~12%
drug released ([1]; Example 6: 2% by weight SaCl dispersion in 70% by weight 50:50 DL-PLG (MW 1500) in NMP, after 14 days): ~16%
concentration at 3 days [2]: 63.2 µg/mL
concentration at 7 days [2]: 80.2 µg/mL
concentration at 10 days [2]: 67.8 µg/mL
concentration at 14 days [2]: 70.5 µg/mL

CCOC1c2c(ccc3c2OCO3)-c2ccc3cc4c(cc3c2N1C)OCO4 (stereo not shown) [SaEt, Ethoxydihydrosanguinarine]
drug released ([1]; Example 2: SaEt dissolved in DL-PLA oligomer/NMP solution of Example 1, after 2 days): ~52%
drug released ([1]; Example 2: SaEt dissolved in DL-PLA oligomer/NMP solution of Example 1, after 5 days): ~60%
drug released ([1]; Example 2: SaEt dissolved in DL-PLA oligomer/NMP solution of Example 1, after 9 days): ~70%
drug released ([1]; Example 2: SaEt dissolved in DL-PLA oligomer/NMP solution of Example 1, after 14 days): ~80%
drug released ([1]; Example 2: SaEt dissolved in DL-PLA oligomer/NMP solution of Example 1, after the first day): approximately 45%
drug released ([1]; Example 4: 1.5% by weight SaEt solution in 40% by weight DL-PLA (MW 2,000) in NMP, after 2 days): ~14%
drug released ([1]; Example 4: 1.5% by weight SaEt solution in 40% by weight DL-PLA (MW 2,000) in NMP, after 5 days): ~20%
drug released ([1]; Example 4: 1.5% by weight SaEt solution in 40% by weight DL-PLA (MW 2,000) in NMP, after 9 days): ~23%
drug released ([1]; Example 4: 1.5% by weight SaEt solution in 40% by weight DL-PLA (MW 2,000) in NMP, after 14 days): ~28%
drug released ([1]; Example 4: 1.5% by weight SaEt solution in 40% by weight DL-PLA (MW 2,000) in NMP, after the first day): approximately 8%
release rate ([1]; Example 7: 2% by weight SaEt solution in 70% by weight 50:50 DL-PLG in NMP): identical to that for SaCl described in Example 6
